{
  "source": "patent US6200966A",
  "about": "“Compositions for inhibiting airway wall inflammation” (Amrad Operations Pty. Ltd., priority 1996, dated 2001)",
  "key": {"[1]": {"system": "horseradish peroxidase", "assay": "Oxidation of tetramethyl benzidine by purified horseradish peroxidase", "type": "biochemical", "details": "10 μM"}, "[2]": {"system": "glucocorticoid receptors", "details": "Merriam et al, 1980; cited from earlier work"}, "[3]": {"system": "airway smooth muscle cells", "assay": "Morphological changes (cell rounding)", "type": "cell-based, human"}, "[4]": {"system": "guinea-pig peritoneal macrophages", "assay": "Prostacyclin (6-oxo-PGF1α) release in peritoneal macrophages", "type": "cell-based", "method": "Cells were incubated with stimuli including the chemotactic tripeptide, formyl methiony leucyl Phenylalanine (fMLP, 100 nM), Zymosan (400 μg/ml) or phorbol myristate acetate (PMA, 100 nM) for 30 min in the presence or absence of 2-methoxyestradiol (10 μM) added 15 min before the stimuli. […] All individual incubations were carried out in duplicate and experiments were carried out in macrophages from 5 guinea-pigs."}, "[5]": {"system": "RBL2H3 cells", "assay": "Mast cell degranulation: [3H]-5HT release", "type": "cell-based", "details": "for DNP-OA-stimulated release of [3H]-5HT: ovalbumin (DNP-OA), 10 μM", "method": "RBL2H3 cells were cultured in RPMI 1640 containing 10% FCS and were passaged into 24 well plates for experiments. The cells were sensitised by a 48 hour incubation with 50% (V/V) conditioned medium from a lymphoid cell line secreting anti-DNP ovalbumin antibody. During the last 24 hours of this incubation [^3 H]-5HT (1 μCi/ml) was added to each of the wells to label granular amine stores. At the end of the incubation period, the medium was aspirated, the cells were washed twice in RPMI 1640 and incubated in RPMI 1640 (0.25% BSA) in the absence or presence of 2-methyoxyoestradiol for 15 mins prior to stimulation with DNP-treated ovalbumin, A23187 or PMA for 30 mins at which time the supernatants were harvested, subjected to centrifugation (1000×g, 4° C., 5 min) and aliquots taken for determination of the amount of [^3 H]-5HT released. All experiments were carried out in quadruplicate."}, "[6]": {"system": "certain transformed cell lines", "details": "Lottering et al., 1992; cited from earlier work"}},
  "note": "“Also recorded” adds a separate entry of the source.",
  "data": [
    {"smiles": "COc1cc2c(cc1O)CC[C@@H]1[C@@H]2CC[C@]2(C)[C@@H](O)CC[C@@H]12", "note": "[2-methoxyestradiol, 1,3,5[10]-estratriene-2,3,17-triol 2-methylether]", "values": [
      {"measurement": "oxidation of tetramethyl benzidine by purified horseradish peroxidase", "setting": "[1]", "result": "lack of effect; also recorded: no effect"},
      {"measurement": "affinity for glucocorticoid receptors", "setting": "[2]", "result": "not to have significant affinity"},
      {"measurement": "onset of shape changes", "setting": "[3]; 3 and 10 μM", "result": "≤ 6", "unit": "h"},
      {"measurement": "morphological changes", "setting": "[3]; 3 and 10 μM (2-methoxyestradiol)", "result": "rounded appearance of the normally spindle-shaped cells"},
      {"measurement": "inhibition at 10 µM", "setting": "[4]; Cavia porcellus, Peritoneal macrophage, 0.5 h, PMA (100 nM), read-out: reduction of 6-oxo-PGF1α / prostacyclin response, PMA", "result": 50, "unit": "%"},
      {"measurement": "6-oxo-PGF1α / prostacyclin generation, fMLP", "setting": "[4]; fMLP (100 nM), 10 μM", "result": "completely blocked"},
      {"measurement": "release of [3H]-5HT, basal or PMA or A23187", "setting": "[5]; basal, PMA (100 nM), A23187 (10 μM)", "result": "unaffected; also recorded: did not affect release in response to PMA"},
      {"measurement": "DNP-OA-stimulated release of [3H]-5HT", "setting": "[5]", "result": "reduced"},
      {"measurement": "DNP-OA-stimulated release of [3H]-5HT", "setting": "[5]; listed as 2-methoxyoestradiol", "result": "inhibits degranulation"},
      {"measurement": "proliferation of transformed cell lines", "setting": "[6]", "result": "inhibits proliferation"}
    ]}
  ]
}
